Reference: BindingDB's records for patent US11220494 (Pfizer Inc., 2022)

Target: Cyclin-dependent kinase 6/G1/S-specific cyclin-D3 (Homo sapiens, UniProt Q00534+P30281)
Test: Mobility Shift Assay
Description: The purpose of the CDK6/Cyclin D3 assay is to evaluate the inhibition (% inhibition, Kiapp and Ki values) in the presence of small molecule inhibitors by using a fluorescence based microfluidic mobility shift assay. […] The mobility shift assay electrophoretically separates the fluorescently labeled peptides (substrate and phosphorylated product) following the kinase reaction. Both substrate and product are measured and the ratio of these values is used to generate % conversion of substrate to product by the LabChip EZ Reader. […] The reaction was stopped after 95 minutes by the addition of 50 μL of 30 mM EDTA. Ki determinations were made from a plot of the fractional velocity as a function of inhibitor concentration fit to the Morrison equation with the enzyme concentration as a variable.

Chain of Cyclin-dependent kinase 6/G1/S-specific cyclin-D3 (Q00534 whole entry): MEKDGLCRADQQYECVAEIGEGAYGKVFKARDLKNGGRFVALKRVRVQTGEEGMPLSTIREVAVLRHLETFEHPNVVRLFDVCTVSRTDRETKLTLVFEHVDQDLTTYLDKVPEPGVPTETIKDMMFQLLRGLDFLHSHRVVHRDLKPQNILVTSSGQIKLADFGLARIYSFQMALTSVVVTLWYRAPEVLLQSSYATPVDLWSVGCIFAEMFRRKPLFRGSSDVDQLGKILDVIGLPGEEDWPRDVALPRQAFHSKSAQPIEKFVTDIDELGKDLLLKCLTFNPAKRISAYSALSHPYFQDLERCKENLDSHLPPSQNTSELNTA
Chain of Cyclin-dependent kinase 6/G1/S-specific cyclin-D3 (P30281 whole entry): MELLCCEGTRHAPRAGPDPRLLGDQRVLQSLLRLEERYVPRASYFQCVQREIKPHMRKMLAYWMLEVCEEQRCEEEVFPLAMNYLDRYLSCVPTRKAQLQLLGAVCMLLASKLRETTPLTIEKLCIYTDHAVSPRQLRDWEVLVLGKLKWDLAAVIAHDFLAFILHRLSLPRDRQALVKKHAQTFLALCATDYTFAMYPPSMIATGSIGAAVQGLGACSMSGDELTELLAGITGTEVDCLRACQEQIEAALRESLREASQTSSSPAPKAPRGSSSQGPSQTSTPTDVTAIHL

## CC(C)n1c([C@H](C)O)nc2c(F)cc(-c3cc(N[C@@H]4CCN(S(C)(=O)=O)C[C@H]4O)ncc3Cl)cc21 [US11220494, Example E01]
  Ki: 1.4 nM
